This passage reports MIC results from ChEMBL document CHEMBL1255519, “The synthesis of paleic acid, an antimicrobial agent effective against Mannheimia and Pasteurella, and its structurally related derivatives” (2010).

Common to all, as to format: functional
Assay [1] has as its system Mannheimia haemolytica. Briefly: Antimicrobial activity against Mannheimia haemolytica S801 after 17 hrs by serial agar dilution method. On the technique in general: In agar dilution the substance is mixed into plates at graded concentrations.
The subject of assay [2] is Mannheimia haemolytica. Briefly: Antimicrobial activity against Mannheimia haemolytica N811 after 17 hrs by serial agar dilution method.
Assay [3] has as its system Pasteurella multocida. Briefly: Antimicrobial activity against Pasteurella multocida isolate 6 after 17 hrs by serial agar dilution method.
Assay [4] concerns Pasteurella multocida. Nature of the assay: Antimicrobial activity against Pasteurella multocida Kobe after 17 hrs by serial agar dilution method.
Assay [5] concerns Mannheimia haemolytica. Briefly: Antimicrobial activity against Mannheimia haemolytica N791 after 17 hrs by serial agar dilution method. The following applies: N791, 17 h.
For assay [6], the system named is Actinobacillus pleuropneumoniae. Nature of the assay: Antimicrobial activity against Actinobacillus pleuropneumoniae NB001 after 17 hrs by serial agar dilution method.
For assay [7], the system named is Pasteurella multocida. Briefly: Antimicrobial activity against Pasteurella multocida M-17 after 17 hrs by serial agar dilution method. The note with it: M-17, 17 h.
The test system of a further assay is Histophilus somni. Briefly: Antimicrobial activity against Histophilus somni 23N2359 after 17 hrs by serial agar dilution method. The note with it: 23N2359, 17 h.
In assay [8] the test system is Pasteurella multocida. Nature of the assay: Antimicrobial activity against Pasteurella multocida TS-8 after 17 hrs by serial agar dilution method.
Where [9] appears, read: Mannheimia haemolytica, S801, 17 h, read-out: MIC.
Setting [10] is: Mannheimia haemolytica, N811, 17 h, read-out: MIC.
[11] abbreviates: Pasteurella multocida, isolate 6, 17 h, read-out: MIC.
Where [12] appears, read: Actinobacillus pleuropneumoniae, NB001, 17 h, read-out: MIC.
Where [13] appears, read: Pasteurella multocida, TS-8, 17 h, read-out: MIC.

≈ marks a conversion by molar mass, not a printed value.

Regarding `CC[C@@H](O)CCCCC/C=C\CCCCCCCC(N)=O`, the minimum inhibitory concentration (MIC) (as a rule, the least concentration at which growth counts as inhibited) was 50 µg/mL (≈ 168 µM) in the assay on Mannheimia haemolytica [1] (setting [9]); 12.5 µg/mL (≈ 42 µM) in the assay on Mannheimia haemolytica [2] (setting [10]); above 50 µg/mL in the assay with Pasteurella multocida [3] (setting [11]); above 50 µg/mL with Pasteurella multocida [4]; 25 µg/mL (≈ 84 µM) with Mannheimia haemolytica [5]; above 50 µg/mL in assay [6] (setting [12]). In addition, the minimal inhibitory concentration (MIC) was above 50 µg/mL in the assay on Pasteurella multocida [7], above 50 µg/mL with Histophilus somni and 50 µg/mL (≈ 168 µM) with Pasteurella multocida [8] (setting [13]).
Regarding `CC[C@H](O)CCCCC/C=C\CCCCCCCC(=O)O`, the MIC with Mannheimia haemolytica [1] (setting [9]) was 0.39 µg/mL (≈ 1.31 µM); in the assay on Mannheimia haemolytica [2] (setting [10]), 0.78 µg/mL (≈ 2.61 µM); in the assay with Pasteurella multocida [3] (setting [11]), 50 µg/mL (≈ 168 µM); in the assay with Pasteurella multocida [4], above 50 µg/mL; in the assay on Mannheimia haemolytica [5], 0.78 µg/mL (≈ 2.61 µM); in [6] (setting [12]) it was 12.5 µg/mL (≈ 41.9 µM). For the same compound, the MIC against Pasteurella multocida [7] was above 50 µg/mL; against Histophilus somni it was above 50 µg/mL; in the assay on Pasteurella multocida [8] (setting [13]) it was 6.25 µg/mL (≈ 20.9 µM).
Turning to `CCC(=O)CCCCC/C=C\CCCCCCCC(=O)O`, the minimum inhibitory concentration (MIC) was 6.25 µg/mL (≈ 21.1 µM) with Mannheimia haemolytica [1] (setting [9]); 6.25 µg/mL (≈ 21.1 µM) with Mannheimia haemolytica [2] (setting [10]); 50 µg/mL (≈ 169 µM) in the assay with Pasteurella multocida [3] (setting [11]); above 50 µg/mL with Pasteurella multocida [4]; 3.13 µg/mL (≈ 10.6 µM) in the assay with Mannheimia haemolytica [5]; 6.25 µg/mL (≈ 21.1 µM) in assay [6] (setting [12]). For the same compound, the MIC is above 50 µg/mL in the assay on Pasteurella multocida [7], above 50 µg/mL with Histophilus somni and 50 µg/mL (≈ 169 µM) with Pasteurella multocida [8] (setting [13]).
Turning to `CCC1(CCCCC/C=C\CCCCCCCC(=O)O)OCCO1`, the MIC with Mannheimia haemolytica [1] (setting [9]) was 25 µg/mL (≈ 73.4 µM); with Mannheimia haemolytica [2] (setting [10]), 25 µg/mL (≈ 73.4 µM); with Pasteurella multocida [3] (setting [11]), above 50 µg/mL; with Pasteurella multocida [4] it was 50 µg/mL (≈ 147 µM); in the assay with Mannheimia haemolytica [5], 25 µg/mL (≈ 73.4 µM); in assay [6] (setting [12]), above 100 µg/mL. Besides, the figures for the minimal inhibitory concentration (MIC) in the assay on Pasteurella multocida [7], in the assay with Histophilus somni and with Pasteurella multocida [8] (setting [13]) were above 50 µg/mL, above 50 µg/mL and 25 µg/mL (≈ 73.4 µM), respectively.
Take `CC/C(CCCCC/C=C\CCCCCCCC(=O)O)=N/O`: the minimum inhibitory concentration (MIC) is 1.56 µg/mL (≈ 5.01 µM) with Mannheimia haemolytica [1] (setting [9]); 1.56 µg/mL (≈ 5.01 µM) in the assay on Mannheimia haemolytica [2] (setting [10]); 3.13 µg/mL (≈ 10 µM) in the assay on Pasteurella multocida [3] (setting [11]); above 50 µg/mL against Pasteurella multocida [4]; 1.56 µg/mL (≈ 5.01 µM) in the assay on Mannheimia haemolytica [5]; 6.25 µg/mL (≈ 20.1 µM) in assay [6] (setting [12]). Further, the results for the MIC against Pasteurella multocida [7], in the assay with Histophilus somni and with Pasteurella multocida [8] (setting [13]) were above 50 µg/mL, above 50 µg/mL and 25 µg/mL (≈ 80.3 µM), respectively.
As for `CC[C@@H](O)CCCCC/C=C\CCCCCCCC(=O)NO`, the MIC in the assay on Mannheimia haemolytica [1] (setting [9]) was 50 µg/mL (≈ 159 µM); with Mannheimia haemolytica [2] (setting [10]), 25 µg/mL (≈ 79.7 µM); in the assay on Pasteurella multocida [3] (setting [11]), 12.5 µg/mL (≈ 39.9 µM); in the assay with Pasteurella multocida [4], above 50 µg/mL; with Mannheimia haemolytica [5], 25 µg/mL (≈ 79.7 µM); in assay [6] (setting [12]), 50 µg/mL (≈ 159 µM). Moreover, the MIC is above 50 µg/mL in the assay with Pasteurella multocida [7], above 50 µg/mL in the assay with Histophilus somni and 50 µg/mL (≈ 159 µM) in the assay with Pasteurella multocida [8] (setting [13]).
Consider `CC[C@@H](O)CCCCC/C=C\CCCCCCCC(=O)NS(C)(=O)=O`, for which the MIC in the assay on Mannheimia haemolytica [1] (setting [9]) is 25 µg/mL (≈ 66.6 µM); in the assay with Mannheimia haemolytica [2] (setting [10]), 50 µg/mL (≈ 133 µM); in the assay on Pasteurella multocida [3] (setting [11]) it was 50 µg/mL (≈ 133 µM); with Pasteurella multocida [4], above 50 µg/mL; against Mannheimia haemolytica [5], 50 µg/mL (≈ 133 µM); in [6] (setting [12]), above 50 µg/mL. Further, the minimal inhibitory concentration (MIC) in the assay on Pasteurella multocida [7] was above 50 µg/mL; against Histophilus somni, above 50 µg/mL; in the assay on Pasteurella multocida [8] (setting [13]), 25 µg/mL (≈ 66.6 µM).
Take `CC[C@@H](O)CCCCC/C=C\CCCCCCCc1nnn[nH]1`: the minimum inhibitory concentration (MIC) (with Mannheimia haemolytica [1] (setting [9]); in the assay with Mannheimia haemolytica [2] (setting [10]); in the assay with Pasteurella multocida [3] (setting [11]); against Pasteurella multocida [4]; in the assay on Mannheimia haemolytica [5]; in assay [6] (setting [12])) was 50 µg/mL (≈ 155 µM) throughout. The MIC against Pasteurella multocida [7], with Histophilus somni and in the assay on Pasteurella multocida [8] (setting [13]) was 50 µg/mL (≈ 155 µM) each time.
With `CC[C@@H](O)CCCCC/C=C\CCCCCCCC(=O)O` (stereo in doubt; 1) [PALEIC ACID], the MIC in the assay with Mannheimia haemolytica [1] (setting [9]) is 1.56 µg/mL (≈ 5.23 µM); in the assay with Mannheimia haemolytica [2] (setting [10]), 1.56 µg/mL (≈ 5.23 µM); in the assay on Pasteurella multocida [3] (setting [11]) it was 6.25 µg/mL (≈ 20.9 µM); against Pasteurella multocida [4], above 50 µg/mL; with Mannheimia haemolytica [5] it was 0.78 µg/mL (≈ 2.61 µM); in assay [6] (setting [12]), 6.25 µg/mL (≈ 20.9 µM). Further, the results for the MIC in the assay on Pasteurella multocida [7], against Histophilus somni and in the assay on Pasteurella multocida [8] (setting [13]) were above 50 µg/mL, above 50 µg/mL and 3.13 µg/mL (≈ 10.5 µM), respectively.
On to `CC[C@@H](O)CCCCC/C=C\CCCCCCCC(=O)O` (stereo in doubt; 2) [PALEIC ACID], for which the MIC is 0.78 µg/mL (≈ 2.61 µM) in the assay with Mannheimia haemolytica [1]; 0.78 µg/mL (≈ 2.61 µM) in the assay on Mannheimia haemolytica [2]; 12.5 µg/mL (≈ 41.9 µM) in the assay on Pasteurella multocida [3]; 6.25 µg/mL (≈ 20.9 µM) in assay [6]; 6.25 µg/mL (≈ 20.9 µM) in the assay on Pasteurella multocida [8].
